system: HCV; test: anti-HCV activity assay in cell culture (HCV RNA by one-step quantitative RT-PCR); type: cell-based; conditions: compound at 10 μmol/L; Huh7.5 cells infected with HCV virus particles; cultured 96 hrs; HCV RNA in cells vs virus control group
Procedure: The assay results of anti-HCV activity of the compound synthesized according to the present invention in cell culture are shown in Table 1, wherein the molecular weight is calculated by ChemBioDraw 12.0 software from the molecular structure of each compound.
100 μL Huh7.5 cells were seeded in 96-well cell culture plate to 1×10^5/mL density, cultured in an incubator at 37° C. under the condition of 5% CO2 and saturated humidity for 6 hrs. Huh7.5 cells were then infected by viral solution containing HCV virus particles, and solutions of compound of the present invention at a concentration of 10 μmol/L liquid were added respectively, cultured for further 96 hrs, and then total RNA was extracted from the cells. Amount of HCV RNA in cells was determined by one-step quantitative RT-PCR, and compared to RNA levels of the virus control group to calculate the inhibition rate of compounds on HCV.

Point of comparison: `COc1ccc(N2CCN(Cc3cc(N(C)CCN(C)C)ccc3C#N)CC2)cc1OC` [VI-45, 4-(N,N′,N′-trimethyl-1,2-ethylenediamin-1-yl)-2-(3,4-dimethoxyphenylpiperazin-1-yl)methylbenzonitrile], “percent inhibition (%)” value 92%. Against it:
- CN(C)C1CCN(c2ccc(C#N)c(CN3CCN(c4ccc(Cl)cc4)CC3)c2)C1 (stereo not shown) [VI-44, 4-((3-dimethylamino)pyrrolidin-1-yl)-2-(4-p-chlorophenylpiperazin-1-yl)methylbenzonitrile] — lower, 89%
- COc1ccc(N2CCN(Cc3cc(NC(C)CN4CCCC4)ccc3C#N)CC2)cc1 (stereo not shown) [VI-46, 4-(1-(pyrrolidin-1-yl)propyl-2-yl)amino-2-(4-p-methoxyphenylpiperazin-1-yl)methylbenzonitrile] — higher, 95%
- CN(C)CCN(C)c1ccc(C#N)c(CN2CCN(c3ccc(OC(F)(F)F)cc3)CC2)c1 [VI-47, 4-(N,N′,N′-trimethyl-1,2-ethylenediamin-1-yl)-2-(4-trifluoromethoxyphenylpiperazin-1-yl)methylbenzonitrile] — higher, 93%

— patent US10252987B2, “Type of antiviral compound” (Institute of Medicinal Biotechnology, Chinese Academy of …, priority 2015, dated 2019)
